In patent US20060069132A1, “Azolecarboxamide herbicides” (priority 2004, published 2006):

Tests used:
wild oat = assay: Test B postemergence herbicide test; type: in vivo, Avena fatua
Method in brief: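 Treated at 2-leaf (paddy) or 1–4-leaf, 2–18 cm (postemergence); greenhouse 13–15 d; visual score vs control, 0 none to 100 complete control; dash = not tested.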

pigweed [1] = assay: Test B pre-/postemergence herbicide test; type: in vivo, Amaranthus retroflexus; conditions: for Pigweed plant response rating (0 to 100 scale) / Plant response rating, Pigweed: 0 = no effect, 100 = complete control
Method in brief: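 Herbicidal effect was judged by eye on a 0–100 scale after plants stood 13 to 15 days in the greenhouse following pre- or postemergence treatment with surfactant-containing formulations.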

large crabgrass = assay: Test C pre-/postemergence herbicide test; type: in vivo, Digitaria sanguinalis
Method in brief: (§1)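 Emerged plants at the 1- to 4-leaf stage (2–18 cm), or freshly planted seeds, received test chemicals in a non-phytotoxic solvent mixture with surfactant. Response was visually scored against controls after 12 to 14 days in the greenhouse, on a 0 (no effect) to 100 (complete control) scale.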

lambsquarters = assay: Test C pre-/postemergence herbicide test; type: in vivo, Chenopodium album
Method in brief: as §1

goosegrass = assay: Test C pre-/postemergence herbicide test; type: in vivo, Eleusine indica
Method in brief: as §1

common ragweed = assay: Test C pre-/postemergence herbicide test; type: in vivo, Ambrosia elatior; design: key to Plant response rating, Ragweed: 0 = no effect, 100 = complete control
Method in brief: as §1

pigweed [2] = assay: Test C pre-/postemergence herbicide test; type: in vivo, Amaranthus retroflexus
Method in brief: as §1

morningglory = assay: Test A pre-/postemergence herbicide test; type: in vivo, Ipomoea spp.
Method in brief: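 Both application timings were run together: directed soil spray over freshly planted seeds in sandy loam, and runoff spray onto 2–10 cm seedlings. Evaluation after ~10 days in greenhouse used a 0–100 visual scale versus untreated controls.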

kochia = assay: Test C pre-/postemergence herbicide test; type: in vivo, Kochia scoparia
Method in brief: as §1

[3] = postemergence, 125 g ai/ha, visual rating, scale 0 (no effect) to 100 (complete control)
[4] = postemergence, 500 g ai/ha, scale 0 to 100, 0 is no effect, 100 is complete control
[5] = 500 g ai/ha, visual rating, preemergence
[6] = Postemergence, 500 g ai/ha, scale 0 to 100
[7] = Postemergence, 250 g ai/ha, scale 0 to 100, 0 no effect, 100 complete control
[8] = postemergence, 125 g ai/ha, scale 0 to 100
[9] = postemergence, 62 g ai/ha, scale 0 to 100
[10] = Postemergence, 500 g ai/ha, 0 to 100 scale, 0 no effect, 100 complete control
[11] = Postemergence, 2000 g ai/ha, 0 to 100 scale, 0 no effect, 100 complete control
[12] = Preemergence, 2000 g ai/ha, visual rating, 0 to 100 scale (0 no effect, 100 complete control)
[13] = preemergence, 500 g ai/ha, visual injury, 0 to 100 scale (0 no effect, 100 complete control)
[14] = 125 g ai/ha, visual rating, scale 0 (no effect) to 100 (complete control), postemergence
[15] = 62 g ai/ha, preemergence, scale 0 to 100
[16] = 125 g ai/ha, scale 0 (no effect) to 100 (complete control), visual, 12 to 14 days, preemergence
[17] = 250 g ai/ha, scale 0-100, preemergence
[18] = 500 g ai/ha, scale 0 to 100 (0 no effect, 100 complete control), visual, 12 to 14 days, preemergence
[19] = Postemergence, 500 g ai/ha, scale 0 (no effect) to 100 (complete control)

In the case of `CCn1nc(C(C)(C)C)cc1C(=O)Nc1cccc(OC(F)(F)F)c1` [Compound 272], the “Oat, Wild plant response rating” value (wild oat; [3]) is reported as 60, the “Oat, Wild plant response rating” value (wild oat; [4]) is reported as 90 and the “Pigweed plant response rating (0 to 100 scale)” value (pigweed [1]; 125 g ai/ha, preemergence) is reported as 90. For the same compound, the “Plant response rating, Pigweed” value (pigweed [1]; [5]) was 100, the “Pigweed plant response rating” value (pigweed [1]; [3]) was 100 and the “Pigweed plant response rating” value (pigweed [1]; [4]) was 100. For the same compound, the “Crabgrass, Large plant response rating” value (large crabgrass; [6]) was 95, the “Plant response rating, Crabgrass, Large” value (large crabgrass; [7]) was 80 and the “Plant response rating, Crabgrass, Large” value (large crabgrass; [8]) was 80. The “Plant response rating, Crabgrass, Large” value (large crabgrass; [9]) was 40, the “Lambsquarters plant response rating” value (lambsquarters; [6]) was 100 and the “Plant response rating, Lambsquarters” value (lambsquarters; [7]) was 100. The “Plant response rating, Lambsquarters” value (lambsquarters; [8]) was 100, the “Plant response rating, Lambsquarters” value (lambsquarters; [9]) was 100 and the “Goosegrass plant response rating” value (goosegrass; [6]) was 80. For the same compound, the “Plant response rating, Goosegrass” value (goosegrass; [7]) was 75, the “Plant response rating, Goosegrass” value (goosegrass; [8]) was 65 and the “Plant response rating, Goosegrass” value (goosegrass; [9]) was 20. For the same compound, the “Ragweed plant response rating” value (common ragweed; [6]) was 95, the “Plant response rating, Ragweed” value (common ragweed; [7]) was 80 and the “Plant response rating, Ragweed” value (common ragweed; [8]) was 65. For the same compound, the “Plant response rating, Ragweed” value (common ragweed; [9]) was 60, the “Pigweed plant response rating” value (pigweed [2]; [6]) was 100 and the “Plant response rating, Pigweed” value (pigweed [2]; [7]) was 100. The “Plant response rating, Pigweed” value (pigweed [2]; [8]) was 100, the “Plant response rating, Pigweed” value (pigweed [2]; [9]) was 100 and the “Morningglory plant response rating” value (morningglory; [10]) was 100. For the same compound, the “Plant response rating, Morningglory” value (morningglory; [11]) was 100, the “Morningglory plant response rating” value (morningglory; [12]) was 55 and the “Morningglory plant response rating” value (morningglory; [13]) was 20. The “Kochia plant response rating” value (kochia; [6]) was 100, the “Plant response rating, Kochia” value (kochia; [7]) was 100 and the “Plant response rating, Kochia” value (kochia; [8]) was 100. The “Plant response rating, Kochia” value (kochia; [9]) was 95.
With `CCn1nc(C(C)(C)C)cc1C(=O)Nc1cncc(C(=O)N(C)C)n1` [Compound 287] the “Oat, Wild plant response rating” value (wild oat; [14]) was 20, the “Oat, Wild plant response rating” value (wild oat; [4]) was 40 and the “Pigweed plant response rating (0 to 100 scale)” value (pigweed [1]; 125 g ai/ha, preemergence) was 90. The “Pigweed plant response rating” value (pigweed [1]; [14]) was 20, the “Plant response rating, Pigweed” value (pigweed [1]; [5]) was 100 and the “Pigweed plant response rating” value (pigweed [1]; [4]) was 30. For the same compound, the “Plant response rating, Crabgrass, Large” value (large crabgrass; [15]) was 65, the “Plant response rating, Crabgrass, Large” value (large crabgrass; [16]) was 95 and the “Plant response rating, Crabgrass, Large” value (large crabgrass; [17]) was 95. For the same compound, the “Plant response rating, Crabgrass, Large” value (large crabgrass; [18]) was 100, the “Plant response rating, Lambsquarters” value (lambsquarters; [15]) was 100 and the “Plant response rating, Lambsquarters” value (lambsquarters; [16]) was 100. For the same compound, the “Plant response rating, Lambsquarters” value (lambsquarters; [17]) was 100, the “Plant response rating, Lambsquarters” value (lambsquarters; [18]) was 100 and the “Plant response rating, Goosegrass” value (goosegrass; [15]) was 70. The “Plant response rating, Goosegrass” value (goosegrass; [16]) was 100, the “Plant response rating, Goosegrass” value (goosegrass; [17]) was 100 and the “Plant response rating, Goosegrass” value (goosegrass; [18]) was 100. For the same compound, the “Plant response rating, Ragweed” value (common ragweed; [15]) was 100, the “Plant response rating, Ragweed” value (common ragweed; [17]) was 100 and the “Plant response rating, Ragweed” value (common ragweed; [18]) was 100. For the same compound, the “Plant response rating, Pigweed” value (pigweed [2]; [15]) was 100, the “Plant response rating, Pigweed” value (pigweed [2]; [16]) was 100 and the “Plant response rating, Pigweed” value (pigweed [2]; [17]) was 100. For the same compound, the “Plant response rating, Pigweed” value (pigweed [2]; [18]) was 100, the “Morningglory plant response rating” value (morningglory; [10]) was 20 and the “Plant response rating, Morningglory” value (morningglory; [11]) was 15. For the same compound, the “Morningglory plant response rating” value (morningglory; [12]) was 50, the “Morningglory plant response rating” value (morningglory; [13]) was 10 and the “Plant response rating, Kochia” value (kochia; [15]) was 85. For the same compound, the “Plant response rating, Kochia” value (kochia; [16]) was 100, the “Plant response rating, Kochia” value (kochia; [17]) was 100 and the “Plant response rating, Kochia” value (kochia; [18]) was 100.
`CCc1nn(C(C)(C)C)nc1C(=O)Nc1cccc(C(=O)NC2CC2)c1` [Compound 417] was tested, and the “Oat, Wild plant response rating” value (wild oat; [19]) was 40, the “Oat, Wild plant response rating” value (wild oat; [8]) was 10 and the “Plant response rating (0 to 100 scale), Pigweed” value (pigweed [1]; 125 g ai/ha, 0 is no effect, 100 is complete control, preemergence) was 90. The “Pigweed plant response rating” value (pigweed [1]; [19]) was 80, the “Pigweed plant response rating” value (pigweed [1]; [8]) was 50 and the “Plant response rating, Crabgrass, Large” value (large crabgrass; [15]) was 100. The “Plant response rating (0 = no effect, 100 = complete control), Crabgrass, Large” value (large crabgrass; 125 g ai/ha, preemergence) was 100, the “Plant response rating, Crabgrass, Large” value (large crabgrass; [17]) was 100 and the “Plant response rating, Crabgrass, Large” value (large crabgrass; [18]) was 100. For the same compound, the “Plant response rating, Lambsquarters” value (lambsquarters; [15]) was 95, the “Plant response rating (0 = no effect, 100 = complete control), Lambsquarters” value (lambsquarters; 125 g ai/ha, preemergence) was 100 and the “Plant response rating, Lambsquarters” value (lambsquarters; [17]) was 100. The “Plant response rating, Lambsquarters” value (lambsquarters; [18]) was 100, the “Plant response rating, Goosegrass” value (goosegrass; [15]) was 95 and the “Plant response rating (0 = no effect, 100 = complete control), Goosegrass” value (goosegrass; 125 g ai/ha, preemergence) was 100. The “Plant response rating, Goosegrass” value (goosegrass; [17]) was 100, the “Plant response rating, Goosegrass” value (goosegrass; [18]) was 100 and the “Plant response rating, Ragweed” value (common ragweed; [15]) was 0. The “Plant response rating (0 = no effect, 100 = complete control), Ragweed” value (common ragweed; 125 g ai/ha, preemergence) was 20, the “Plant response rating, Ragweed” value (common ragweed; [18]) was 90 and the “Plant response rating, Pigweed” value (pigweed [2]; [15]) was 100. For the same compound, the “Plant response rating (0 = no effect, 100 = complete control), Pigweed” value (pigweed [2]; 125 g ai/ha, preemergence) was 100, the “Plant response rating, Pigweed” value (pigweed [2]; [18]) was 100 and the “Morningglory plant response rating” value (morningglory; [10]) was 70. The “Plant response rating, Morningglory” value (morningglory; [11]) was 85, the “Morningglory plant response rating” value (morningglory; [12]) was 80 and the “Morningglory plant response rating” value (morningglory; [13]) was 20. For the same compound, the “Plant response rating, Kochia” value (kochia; [15]) was 0, the “Plant response rating (0 = no effect, 100 = complete control), Kochia” value (kochia; 125 g ai/ha, preemergence) was 85 and the “Plant response rating, Kochia” value (kochia; [17]) was 100. For the same compound, the “Plant response rating, Kochia” value (kochia; [18]) was 100.
